Read-outs that look alike come from different tables or passages of the source. One block for each compound: values may come before it.
What was measured:
[1] = test system: diaphragm (galactitol accumulation); assay: Galactitol (dulcitol) accumulation in diaphragm of galactosemic rats; assay type: in vivo, rat (male, Sprague-Dawley); conditions: four days
Source text: (§1) Such experiments are exemplified hereinbelow after the listing of the following general comments pertaining to these experiments.
(§2) (a) Four or more groups of six male rats, 50-70 g, Sprague-Dawley strain, were used. The first group, the control group, was fed a mixture of laboratory chow (rodent Laboratory Chow, Purina) and glucose at 20% (w/w %) concentration. […] The test compound was either admixed to the diet or administered by gavage. In experiments involving compound administration in the diet, the average dose administered was calculated from the actual food intake of the animals in each group. The concentration of galactose in the diet of the treated groups was the same as that for the untreated galactosemic group.
(§3) (c) The polyol determination was performed by a modification of the procedure of M. Kraml and L. Cosyns, Clin. Biochem., 2,373 (1969). Only two minor reagent changes were made: (a) The rinsing mixture was an aqueous 5% (w/v) trichloroacetic acid solution and (b) the stock solution was prepared by dissolving 25 mg of dulcitol in 100 mL of an aqueous trichloroacetic acid solution. [N.B.: For each experiment the average value found in the tissue from rats fed the glucose diet was subtracted from the individual values found in the corresponding tissue in galactose-fed rats to obtain the amount of polyol accumulated.] […] In the present case the procedure of Hayman and Kinoshita was modified in that the final chromatography step was omitted in the preparation of the enzyme from bovine lens.
(§4) The figures under L, N, and D represent the percentage decrease of galactitol accumulation in the tissues of the lens, sciatic nerve, and diaphragm, respectively, for treated rats as compared to untreated rats.

[2] = test system: sciatic nerve (galactitol accumulation); assay: Galactitol (dulcitol) accumulation in sciatic nerve of galactosemic rats; assay type: in vivo, rat (male, Sprague-Dawley); conditions: four days
Source text: as §1, §2
(§5) (b) After four days, the animals were killed by decapitation. The eyeballs were removed and punctured with a razor blade; the freed lenses were rolled gently on filter paper and weighed. The sciatic nerves were dissected as completely as possible and weighed. Both tissues when frozen can be kept up to two weeks before being analyzed for galactitol.
as §3, §4

[3] = test system: lens (galactitol accumulation); assay: Galactitol (dulcitol) accumulation in lens of galactosemic rats; assay type: in vivo, rat (male, Sprague-Dawley); conditions: four days
Source text: (§6) The aldose reductase inhibiting property of the compounds of this invention and the utilization of the compounds in preventing, diminishing and alleviating diabetic complications are demonstrable in experiments using galactosemic rats, see Dvornik et al, Science, 182, 1146 (1973). Such experiments are exemplified hereinbelow after the listing of the following general comments pertaining to these experiments.
(§7) (a) Four or more groups of six male rats, 50-70 g, Sprague-Dawley strain, were used. The first group, the control group, was fed a mixture of laboratory chow (rodent Laboratory Chow, Purina) and glucose at 20% (w/w %) concentration. The untreated galactosemic group and the drug-treated groups were fed a similar diet in which galactose is substituted for glucose. The test compound was either admixed to the diet or administered by gavage. In experiments involving compound administration in the diet, the average dose administered was calculated from the actual food intake of the animals in each group. The concentration of galactose in the diet of the treated groups was the same as that for the untreated galactosemic group.
as §5
(c) The polyol determination was performed by a modification of the procedure of M. Kraml and L. Cosyns, Clin. Biochem., 2,373 (1969). Only two minor reagent changes were made: (a) The rinsing mixture was an aqueous 5% (w/v) trichloroacetic acid solution and (b) the stock solution was prepared by dissolving 25 mg of dulcitol in 100 mL of an aqueous trichloroacetic acid solution. [N.B.: For each experiment the average value found in the tissue from rats fed the glucose diet was subtracted from the individual values found in the corresponding tissue in galactose-fed rats to obtain the amount of polyol accumulated.] The aldose reductase inhibiting effects of the compounds of formula (I) were also tested by employing an in vitro testing procedure similar to that described by S. Hayman and J. H. Kinoshita, J. Biol. Chem., 240,877 (1965). In the present case the procedure of Hayman and Kinoshita was modified in that the final chromatography step was omitted in the preparation of the enzyme from bovine lens.
as §4

aldose reductase = biological target: T1, aldose reductase (Bos taurus, UniProt P16116); assay: Aldose reductase inhibition in vitro (enzyme preparation from bovine lens, modified Hayman and Kinoshita procedure); assay type: biochemical; conditions: for inhibition at 10 µM / inhibition at 1 µM: read-out: % Inhibition IN VITRO; for inhibition at 0.1 µM / % Inhibition IN VITRO: 10^-7 M
T1 construct: preparation of the enzyme from bovine lens; from tissue; host or cells: bovine lens
Experimental: as §3, with “Only” for “(c) The polyol determination was performed by a modification of the procedure of M. Kraml and L. Cosyns, Clin. Biochem., 2,373 (1969). Only”

rats fed galactose = assay: Galactosemic rat experiments; assay type: in vivo, rat (male, Sprague-Dawley)
Source text: as §6, §7
(b) After four days, the animals were killed by decapitation. […] Both tissues when frozen can be kept up to two weeks before being analyzed for galactitol. […]

- inhibition at 10 µM (aldose reductase; 10^-5 M): 95%
- inhibition at 1 µM (aldose reductase; 10^-6 M): 89%
- inhibition at 0.1 µM (aldose reductase): 66%
SMILES: COc1ccc2c(C(=O)N(CC(=O)O)C(=O)OCc3ccccc3)cccc2c1C(F)(F)F
- % Lowering dulcitol accumulation IN VIVO (%)D ([1]; 67 mg/kg): N.S.
- % Lowering dulcitol accumulation IN VIVO (%)N ([2]; 67 mg/kg): N.S.
- % Lowering dulcitol accumulation IN VIVO (%)L ([3]; 67 mg/kg): N.S.

SMILES: CCOC(=O)N(CC(=O)O)C(=O)c1cccc2c(C(F)(F)F)c(OC)ccc12 [Example 1, N-[[6-Methoxy-5-(trifluoromethyl)-1-naphthalenyl]carbonyl]-N-[(ethoxy)carbonyl]glycine]
- results compared with tolrestat (rats fed galactose; 57 mg/kg/day versus tolrestat at 9 mg/kg/day): comparable results
- % Lowering dulcitol accumulation IN VIVO (%)N ([2]; 57 mg/kg): 56%
- % Lowering dulcitol accumulation IN VIVO (%)N ([2]; 97 mg/kg): 90%
- inhibition at 10 µM (aldose reductase; 10^-5 M): 97%
- inhibition at 0.1 µM (aldose reductase): 47%
- inhibition at 1 µM (aldose reductase): 94%

- inhibition at 10 µM (aldose reductase; 10^-5 M): 98%
- inhibition at 1 µM (aldose reductase; 10^-6 M): 97%
- inhibition at 0.1 µM (aldose reductase): 82%
SMILES: COC(=O)N(CC(=O)O)C(=O)c1cccc2c(C(F)(F)F)c(OC)ccc12 [Example 2, N-[[6-Methoxy-5-(trifluoromethyl)-1-naphthalenyl]carbonyl]-N-[(methoxy)carbonyl]glycine]
- results compared with tolrestat (rats fed galactose; 48 mg/kg/day versus tolrestat at 9 mg/kg/day): comparable results
- % Lowering dulcitol accumulation IN VIVO (%)N ([2]; 48 mg/kg): 70%
- % Lowering dulcitol accumulation IN VIVO (%)L ([3]; 48 mg/kg): N.S.

- inhibition at 0.04 µM (aldose reductase; 4 × 10^-8 M): 48%
- inhibition at 10 µM (aldose reductase; 10^-5 M): 95%
- inhibition at 1 µM (aldose reductase; 10^-6 M): 90%
- inhibition at 0.1 µM (aldose reductase): 81%
SMILES: CCCOC(=O)N(CC(=O)O)C(=O)c1cccc2c(C(F)(F)F)c(OC)ccc12 [Example 3]
- % Lowering dulcitol accumulation IN VIVO (%)D ([1]; 48 mg/kg): N.S.
- % Lowering dulcitol accumulation IN VIVO (%)N ([2]; 48 mg/kg): N.S.
- % Lowering dulcitol accumulation IN VIVO (%)L ([3]; 48 mg/kg): N.S.

SMILES: COc1ccc2c(C(=O)N(CC(=O)O)C(=O)OC(C)C)cccc2c1C(F)(F)F [Example 4]
- % Lowering dulcitol accumulation IN VIVO (%)D ([1]; dose not given (N.S.)): N.S.
- % Lowering dulcitol accumulation IN VIVO (%)N ([2]; dose not given (N.S.)): N.S.
- % Lowering dulcitol accumulation IN VIVO (%)L ([3]; dose not given (N.S.)): N.S.

- inhibition at 10 µM (aldose reductase; 10^-5 M): 90%
- inhibition at 1 µM (aldose reductase; 10^-6 M): 64%
- inhibition at 0.1 µM (aldose reductase): 18%
SMILES: COc1ccc2c(C(=O)N(CC(=O)O)C(=O)OCC(C)(C)C)cccc2c1C(F)(F)F [Example 5]
- % Lowering dulcitol accumulation IN VIVO (%)D ([1]; 105 mg/kg): N.S.
- % Lowering dulcitol accumulation IN VIVO (%)N ([2]; 105 mg/kg): N.S.
- % Lowering dulcitol accumulation IN VIVO (%)L ([3]; 105 mg/kg): N.S.

- inhibition at 10 µM (aldose reductase; 10^-5 M): 95%
- inhibition at 1 µM (aldose reductase; 10^-6 M): 89%
- inhibition at 0.1 µM (aldose reductase): 49%
SMILES: COc1ccc2c(C(=O)N(CC(=O)O)C(=O)OCc3ccc(Cl)c([N+](=O)[O-])c3)cccc2c1C(F)(F)F [Example 7]
- % Lowering dulcitol accumulation IN VIVO (%)D ([1]; 107 mg/kg): N.S.
- % Lowering dulcitol accumulation IN VIVO (%)N ([2]; 107 mg/kg): N.S.
- % Lowering dulcitol accumulation IN VIVO (%)L ([3]; 107 mg/kg): N.S.

SMILES: COc1ccc2c(C(=O)N(C=O)CC(=O)O)cccc2c1C(F)(F)F [Example 8, N-Fromyl-N-[[6-methoxy-5-(trifluoromethyl)-1-naphthalenyl]carbonyl]glycine]
- % Lowering dulcitol accumulation IN VIVO (%)N ([2]; 107 mg/kg): 51%
- inhibition at 10 µM (aldose reductase; 10^-5 M): 95%
- inhibition at 0.1 µM (aldose reductase): 89%
- inhibition at 1 µM (aldose reductase): 96%

SMILES: COc1ccc2c(C(=O)N(CC(=O)O)C(C)=O)cccc2c1C(F)(F)F [Example 9]
- % Lowering dulcitol accumulation IN VIVO (%)N ([2]; 100 mg/kg): 36%
- % Lowering dulcitol accumulation IN VIVO (%)L ([3]; 100 mg/kg): N.S.
- inhibition at 1 µM (aldose reductase; 10^-6 M): 91%
- inhibition at 0.1 µM (aldose reductase): 61%
- inhibition at 10 µM (aldose reductase): 96%

- inhibition at 10 µM (aldose reductase; 10^-5 M): 90%
- inhibition at 1 µM (aldose reductase; 10^-6 M): 62%
- inhibition at 0.1 µM (aldose reductase): 15%
SMILES: COc1ccc2c(C(=O)N(CC(=O)O)C(=O)c3ccccc3)cccc2c1C(F)(F)F [Example 10, N-Benzoyl-N-[[6-methoxy-5-(trifluoromethyl)-1-naphthalenyl]carbonyl]glycine]
- % Lowering dulcitol accumulation IN VIVO (%)D ([1]; 50 mg/kg): N.S.
- % Lowering dulcitol accumulation IN VIVO (%)N ([2]; 50 mg/kg): N.S.
- % Lowering dulcitol accumulation IN VIVO (%)L ([3]; 50 mg/kg): N.S.

- inhibition at 10 µM (aldose reductase; 10^-5 M): 22%
- inhibition at 1 µM (aldose reductase; 10^-6 M): 3%
- % Inhibition IN VITRO (aldose reductase): N.S.
SMILES: COc1ccc2c(C(=O)N(CC(=O)O)C(=O)N(C)C)cccc2c1C(F)(F)F [Example 11, N-[(Dimethylamino)carbonyl]-N-[[6-methoxy-5-(trifluoromethyl)-1-naphthalenyl]carbonyl]glycine]

- inhibition at 10 µM (aldose reductase; 10^-5 M): 85%
- inhibition at 1 µM (aldose reductase; 10^-6 M): 54%
- inhibition at 0.1 µM (aldose reductase): 10%
SMILES: COC(=O)N(CC(=O)O)C(=O)c1cccc2c(Br)cccc12 [Example 12]
- % Lowering dulcitol accumulation IN VIVO (%)N ([2]; 102 mg/kg): N.S.
- % Lowering dulcitol accumulation IN VIVO (%)L ([3]; 102 mg/kg): N.S.

- inhibition at 10 µM (aldose reductase; 10^-5 M): 87%
- inhibition at 1 µM (aldose reductase; 10^-6 M): 57%
- inhibition at 0.1 µM (aldose reductase): 12%
SMILES: O=C(O)CN(C(=O)OCc1ccccc1)C(=O)c1cccc2c(Br)cccc12 [Example 13]

- inhibition at 10 µM (aldose reductase; 10^-5 M): 90%
- inhibition at 1 µM (aldose reductase; 10^-6 M): 73%
- inhibition at 0.1 µM (aldose reductase): 22%
SMILES: O=CN(CC(=O)O)C(=O)c1cccc2c(Br)cccc12 [Example 14]
- % Lowering dulcitol accumulation IN VIVO (%)N ([2]; 104 mg/kg): N.S
- % Lowering dulcitol accumulation IN VIVO (%)L ([3]; 104 mg/kg): N.S.

- inhibition at 10 µM (aldose reductase; 10^-5 M): 82%
- inhibition at 1 µM (aldose reductase; 10^-6 M): 41%
- inhibition at 0.1 µM (aldose reductase): 7%
SMILES: CC(=O)N(CC(=O)O)C(=O)c1cccc2c(Br)cccc12 [Example 15]
- % Lowering dulcitol accumulation IN VIVO (%)D ([1]; 112 mg/kg): N.S.
- % Lowering dulcitol accumulation IN VIVO (%)N ([2]; 112 mg/kg): N.S.
- % Lowering dulcitol accumulation IN VIVO (%)L ([3]; 112 mg/kg): N.S.

- inhibition at 10 µM (aldose reductase; 10^-5 M): 83%
- inhibition at 1 µM (aldose reductase; 10^-6 M): 58%
- inhibition at 0.1 µM (aldose reductase): 10%
SMILES: O=C(O)CN(C(=O)c1ccccc1)C(=O)c1cccc2c(Br)cccc12 [Example 16]
- % Lowering dulcitol accumulation IN VIVO (%)D ([1]; 111 mg/kg): N.S.
- % Lowering dulcitol accumulation IN VIVO (%)N ([2]; 111 mg/kg): N.S.
- % Lowering dulcitol accumulation IN VIVO (%)L ([3]; 111 mg/kg): N.S.

- inhibition at 10 µM (aldose reductase; 10^-5 M): 23%
- inhibition at 1 µM (aldose reductase; 10^-6 M): 4%
- % Inhibition IN VITRO (aldose reductase): N.S.
SMILES: CN(C)C(=O)N(CC(=O)O)C(=O)c1cccc2c(Br)cccc12 [Example 17]

SMILES: COC(=O)N(CC(=O)O)C(=S)c1cccc2c(C(F)(F)F)c(OC)ccc12 [Example 18a, N-[[6-Methoxy-5-(trifluoromethyl)-1-naphthalenyl]thioxomethyl]-N-[(methoxy)carbonyl]glycine]
- % Lowering dulcitol accumulation IN VIVO (%)N ([2]; 51 mg/kg): N.S.
- % Lowering dulcitol accumulation IN VIVO (%)L ([3]; 51 mg/kg): N.S.
- inhibition at 1 µM (aldose reductase; 10^-6 M): 88%
- inhibition at 0.1 µM (aldose reductase): 29%
- inhibition at 10 µM (aldose reductase): 94%

SMILES: COc1ccc2c(C(=S)N(C)CC(=O)O)cccc2c1C(F)(F)F [Example 18b, N-[[6-methoxy-5-(trifluoromethyl)-1-napthalenyl]thioxomethyl]-N-methyglycine, reference compound]
- % Lowering dulcitol accumulation IN VIVO (%)L ([3]; 9 mg/kg): N.S.

Reference: US4843062A, “N-acyl-N-napthoylglycines as aldose reductase inhibitors” (American Home Products Corporation, priority 1987, dated 1989)
